Laboratory results reported in the supplement of paper PMC13380429.

Columns and labels:
Conditions in all cases: 72 h
Caco-2 [1] = test: cell viability relative to DMSO; higher = less toxic
Calu-3 [2] = test: as above
HepG2 [3] = test: as above
U2OS [4] = test: as above
Vero E6 [5] = test: as above
Caco-2 [6] = test: relative viability EC50 (midpoint between 100% and the lowest measured viability); higher = less toxic
Calu-3 [7] = test: as above
U2OS [8] = test: as above
Vero E6 [9] = test: as above
Caco-2 [10] = test: drug sensitivity score (DSS) for viability; higher = more toxic; extreme values may be limits of the assay
Calu-3 [11] = test: as above
HepG2 [12] = test: as above
U2OS [13] = test: as above
Vero E6 [14] = test: as above

## N=C(N)NN=C1C=CC(=NNC(N)=S)C=C1 [ambazone]
Caco-2 [1]; 1 nM
  cell viability: 88.4%
Caco-2 [1]; 10 nM
  cell viability: 94.9%
Caco-2 [1]; 100 nM
  cell viability: 94.6%
Caco-2 [1]; 1000 nM
  cell viability: 91.2%
Caco-2 [1]; 10000 nM
  cell viability: 92.7%
Calu-3 [2]; 1 nM
  cell viability: 105%
Calu-3 [2]; 10 nM
  cell viability: 95.8%
Calu-3 [2]; 100 nM
  cell viability: 94.1%
Calu-3 [2]; 1000 nM
  cell viability: 98.2%
Calu-3 [2]; 10000 nM
  cell viability: 118%
HepG2 [3]; 1 nM
  cell viability: 97.1%
HepG2 [3]; 10 nM
  cell viability: 95.3%
HepG2 [3]; 100 nM
  cell viability: 102%
HepG2 [3]; 1000 nM
  cell viability: 83.4%
HepG2 [3]; 10000 nM
  cell viability: 63.2%
U2OS [4]; 1 nM
  cell viability: 95%
U2OS [4]; 10 nM
  cell viability: 94.8%
U2OS [4]; 100 nM
  cell viability: 97.9%
U2OS [4]; 1000 nM
  cell viability: 99.3%
U2OS [4]; 10000 nM
  cell viability: 95%
Vero E6 [5]; 1 nM
  cell viability: 90.9%
Vero E6 [5]; 10 nM
  cell viability: 95.1%
Vero E6 [5]; 100 nM
  cell viability: 102%
Vero E6 [5]; 1000 nM
  cell viability: 100%
Vero E6 [5]; 10000 nM
  cell viability: 103%
Caco-2 [6]
  relative viability EC50: > 10 µM
Calu-3 [7]
  relative viability EC50: > 10 µM
U2OS [8]
  relative viability EC50: > 10 µM
Vero E6 [9]
  relative viability EC50: > 10 µM
Caco-2 [10]
  drug sensitivity score: 0
Calu-3 [11]
  drug sensitivity score: 0
HepG2 [12]
  drug sensitivity score: 3.9
U2OS [13]
  drug sensitivity score: 0
Vero E6 [14]
  drug sensitivity score: 0

## Cc1cc(O)c(C(=O)N[C@@H](C(=O)N[C@@H]2C(=O)N3C(C(=O)O)=C(CSc4nnnn4C)CS[C@H]23)c2ccc(O)cc2)cn1 [cefpiramide]
Caco-2 [1]; 1 nM
  cell viability: 94.2%
Caco-2 [1]; 10 nM
  cell viability: 106%
Caco-2 [1]; 100 nM
  cell viability: 116%
Caco-2 [1]; 1000 nM
  cell viability: 110%
Caco-2 [1]; 10000 nM
  cell viability: 95.3%
Calu-3 [2]; 1 nM
  cell viability: 99%
Calu-3 [2]; 10 nM
  cell viability: 102%
Calu-3 [2]; 100 nM
  cell viability: 108%
Calu-3 [2]; 1000 nM
  cell viability: 106%
Calu-3 [2]; 10000 nM
  cell viability: 98%
U2OS [4]; 1 nM
  cell viability: 93.4%
U2OS [4]; 10 nM
  cell viability: 98.3%
U2OS [4]; 100 nM
  cell viability: 96.5%
U2OS [4]; 1000 nM
  cell viability: 99.5%
U2OS [4]; 10000 nM
  cell viability: 101%
Vero E6 [5]; 1 nM
  cell viability: 101%
Vero E6 [5]; 10 nM
  cell viability: 94.1%
Vero E6 [5]; 100 nM
  cell viability: 100%
Vero E6 [5]; 1000 nM
  cell viability: 104%
Vero E6 [5]; 10000 nM
  cell viability: 96.3%
Caco-2 [6]
  relative viability EC50: > 10 µM
Calu-3 [7]
  relative viability EC50: > 10 µM
U2OS [8]
  relative viability EC50: > 10 µM
Vero E6 [9]
  relative viability EC50: > 10 µM
Caco-2 [10]
  drug sensitivity score: 0
Calu-3 [11]
  drug sensitivity score: 0
U2OS [13]
  drug sensitivity score: 0
Vero E6 [14]
  drug sensitivity score: 0

## CC(C)(C)NCC(O)c1cc(Cl)c(N)c(Cl)c1 (configuration not stated) [clenbuterol]
Caco-2 [1]; 1 nM
  cell viability: 93.7%
Caco-2 [1]; 10 nM
  cell viability: 89.9%
Caco-2 [1]; 100 nM
  cell viability: 103%
Caco-2 [1]; 1000 nM
  cell viability: 90.8%
Caco-2 [1]; 10000 nM
  cell viability: 117%
Calu-3 [2]; 1 nM
  cell viability: 108%
Calu-3 [2]; 10 nM
  cell viability: 85.1%
Calu-3 [2]; 100 nM
  cell viability: 100%
Calu-3 [2]; 1000 nM
  cell viability: 93.7%
Calu-3 [2]; 10000 nM
  cell viability: 97.4%
U2OS [4]; 1 nM
  cell viability: 97.6%
U2OS [4]; 10 nM
  cell viability: 95%
U2OS [4]; 100 nM
  cell viability: 105%
U2OS [4]; 1000 nM
  cell viability: 98.2%
U2OS [4]; 10000 nM
  cell viability: 96.9%
Vero E6 [5]; 1 nM
  cell viability: 95.3%
Vero E6 [5]; 10 nM
  cell viability: 101%
Vero E6 [5]; 100 nM
  cell viability: 97.8%
Vero E6 [5]; 1000 nM
  cell viability: 104%
Vero E6 [5]; 10000 nM
  cell viability: 112%
Caco-2 [6]
  relative viability EC50: > 10 µM
Calu-3 [7]
  relative viability EC50: > 10 µM
U2OS [8]
  relative viability EC50: > 10 µM
Vero E6 [9]
  relative viability EC50: > 10 µM
Caco-2 [10]
  drug sensitivity score: 0
Calu-3 [11]
  drug sensitivity score: 0
U2OS [13]
  drug sensitivity score: 0
Vero E6 [14]
  drug sensitivity score: 0

## Clc1cccc(Cl)c1NC1=NCCN1 [clonidine]
Caco-2 [1]; 1 nM
  cell viability: 95.3%
Caco-2 [1]; 10 nM
  cell viability: 95.6%
Caco-2 [1]; 100 nM
  cell viability: 96.1%
Caco-2 [1]; 1000 nM
  cell viability: 84.1%
Caco-2 [1]; 10000 nM
  cell viability: 94%
Calu-3 [2]; 1 nM
  cell viability: 98.4%
Calu-3 [2]; 10 nM
  cell viability: 87.9%
Calu-3 [2]; 100 nM
  cell viability: 90.4%
Calu-3 [2]; 1000 nM
  cell viability: 87%
Calu-3 [2]; 10000 nM
  cell viability: 88.8%
U2OS [4]; 1 nM
  cell viability: 103%
U2OS [4]; 10 nM
  cell viability: 103%
U2OS [4]; 100 nM
  cell viability: 95.9%
U2OS [4]; 1000 nM
  cell viability: 101%
U2OS [4]; 10000 nM
  cell viability: 98.5%
Vero E6 [5]; 1 nM
  cell viability: 95.6%
Vero E6 [5]; 10 nM
  cell viability: 101%
Vero E6 [5]; 100 nM
  cell viability: 102%
Vero E6 [5]; 1000 nM
  cell viability: 99.3%
Vero E6 [5]; 10000 nM
  cell viability: 95.2%
Caco-2 [6]
  relative viability EC50: > 10 µM
Calu-3 [7]
  relative viability EC50: > 10 µM
U2OS [8]
  relative viability EC50: > 10 µM
Vero E6 [9]
  relative viability EC50: > 10 µM
Caco-2 [10]
  drug sensitivity score: 0
Calu-3 [11]
  drug sensitivity score: 2.3
U2OS [13]
  drug sensitivity score: 0
Vero E6 [14]
  drug sensitivity score: 0

## Nc1ncn([C@H]2C[C@H](O)[C@@H](CO)O2)c(=O)n1 [decitabine]
Caco-2 [1]; 1 nM
  cell viability: 97.2%
Caco-2 [1]; 10 nM
  cell viability: 88.3%
Caco-2 [1]; 100 nM
  cell viability: 82.2%
Caco-2 [1]; 1000 nM
  cell viability: 89.4%
Caco-2 [1]; 10000 nM
  cell viability: 88.4%
Calu-3 [2]; 1 nM
  cell viability: 109%
Calu-3 [2]; 10 nM
  cell viability: 105%
Calu-3 [2]; 100 nM
  cell viability: 101%
Calu-3 [2]; 1000 nM
  cell viability: 107%
Calu-3 [2]; 10000 nM
  cell viability: 93.5%
HepG2 [3]; 1 nM
  cell viability: 95.8%
HepG2 [3]; 10 nM
  cell viability: 98.6%
HepG2 [3]; 100 nM
  cell viability: 82.6%
HepG2 [3]; 1000 nM
  cell viability: 71.9%
HepG2 [3]; 10000 nM
  cell viability: 69.8%
U2OS [4]; 1 nM
  cell viability: 102%
U2OS [4]; 10 nM
  cell viability: 102%
U2OS [4]; 100 nM
  cell viability: 99.9%
U2OS [4]; 1000 nM
  cell viability: 100%
U2OS [4]; 10000 nM
  cell viability: 101%
Vero E6 [5]; 1 nM
  cell viability: 103%
Vero E6 [5]; 10 nM
  cell viability: 102%
Vero E6 [5]; 100 nM
  cell viability: 95.1%
Vero E6 [5]; 1000 nM
  cell viability: 93%
Vero E6 [5]; 10000 nM
  cell viability: 93.2%
Caco-2 [6]
  relative viability EC50: > 10 µM
Calu-3 [7]
  relative viability EC50: > 10 µM
U2OS [8]
  relative viability EC50: > 10 µM
Vero E6 [9]
  relative viability EC50: > 10 µM
Caco-2 [10]
  drug sensitivity score: 1.7
Calu-3 [11]
  drug sensitivity score: 0
HepG2 [12]
  drug sensitivity score: 6.6
U2OS [13]
  drug sensitivity score: 0
Vero E6 [14]
  drug sensitivity score: 0

## C[C@]12C=CC(=O)N[C@@H]1CC[C@@H]1[C@@H]2CC[C@]2(C)[C@@H](C(=O)Nc3cc(C(F)(F)F)ccc3C(F)(F)F)CC[C@@H]12 [dutasteride]
Caco-2 [1]; 1 nM
  cell viability: 111%
Caco-2 [1]; 10 nM
  cell viability: 93%
Caco-2 [1]; 100 nM
  cell viability: 105%
Caco-2 [1]; 1000 nM
  cell viability: 97.4%
Caco-2 [1]; 10000 nM
  cell viability: 104%
Calu-3 [2]; 1 nM
  cell viability: 111%
Calu-3 [2]; 10 nM
  cell viability: 99%
Calu-3 [2]; 100 nM
  cell viability: 98.2%
Calu-3 [2]; 1000 nM
  cell viability: 105%
Calu-3 [2]; 10000 nM
  cell viability: 106%
Caco-2 [6]
  relative viability EC50: > 10 µM
Calu-3 [7]
  relative viability EC50: > 10 µM
Caco-2 [10]
  drug sensitivity score: 0
Calu-3 [11]
  drug sensitivity score: 0

## FC(F)OC(F)(F)C(F)Cl (configuration not stated) [enflurane]
Caco-2 [1]; 1 nM
  cell viability: 96.9%
Caco-2 [1]; 10 nM
  cell viability: 104%
Caco-2 [1]; 100 nM
  cell viability: 98.3%
Caco-2 [1]; 1000 nM
  cell viability: 103%
Caco-2 [1]; 10000 nM
  cell viability: 107%
Calu-3 [2]; 1 nM
  cell viability: 85.1%
Calu-3 [2]; 10 nM
  cell viability: 94.2%
Calu-3 [2]; 100 nM
  cell viability: 85.6%
Calu-3 [2]; 1000 nM
  cell viability: 101%
Calu-3 [2]; 10000 nM
  cell viability: 103%
Vero E6 [5]; 1 nM
  cell viability: 94.7%
Vero E6 [5]; 10 nM
  cell viability: 103%
Vero E6 [5]; 100 nM
  cell viability: 98.4%
Vero E6 [5]; 1000 nM
  cell viability: 104%
Vero E6 [5]; 10000 nM
  cell viability: 103%
Caco-2 [6]
  relative viability EC50: > 10 µM
Calu-3 [7]
  relative viability EC50: > 10 µM
Vero E6 [9]
  relative viability EC50: > 10 µM
Caco-2 [10]
  drug sensitivity score: 0
Calu-3 [11]
  drug sensitivity score: 0
Vero E6 [14]
  drug sensitivity score: 0

## O=C1OC2(c3ccccc31)c1cc(I)c(O)c(I)c1Oc1c2cc(I)c(O)c1I [erythrosine]
Caco-2 [1]; 1 nM
  cell viability: 99.2%
Caco-2 [1]; 10 nM
  cell viability: 98.7%
Caco-2 [1]; 100 nM
  cell viability: 102%
Caco-2 [1]; 1000 nM
  cell viability: 93.8%
Caco-2 [1]; 10000 nM
  cell viability: 51.9%
Calu-3 [2]; 1 nM
  cell viability: 102%
Calu-3 [2]; 10 nM
  cell viability: 104%
Calu-3 [2]; 100 nM
  cell viability: 113%
Calu-3 [2]; 1000 nM
  cell viability: 86.6%
Calu-3 [2]; 10000 nM
  cell viability: 53.6%
HepG2 [3]; 1 nM
  cell viability: 104%
HepG2 [3]; 10 nM
  cell viability: 109%
HepG2 [3]; 100 nM
  cell viability: 97.6%
HepG2 [3]; 1000 nM
  cell viability: 103%
HepG2 [3]; 10000 nM
  cell viability: 53.4%
U2OS [4]; 1 nM
  cell viability: 94.6%
U2OS [4]; 10 nM
  cell viability: 91.7%
U2OS [4]; 100 nM
  cell viability: 97%
U2OS [4]; 1000 nM
  cell viability: 88.7%
U2OS [4]; 10000 nM
  cell viability: 57.3%
Vero E6 [5]; 1 nM
  cell viability: 87.3%
Vero E6 [5]; 10 nM
  cell viability: 96.4%
Vero E6 [5]; 100 nM
  cell viability: 98.7%
Vero E6 [5]; 1000 nM
  cell viability: 81.6%
Vero E6 [5]; 10000 nM
  cell viability: 64.5%
Caco-2 [10]
  drug sensitivity score: 3.6
Calu-3 [11]
  drug sensitivity score: 4.4
HepG2 [12]
  drug sensitivity score: 2.2
U2OS [13]
  drug sensitivity score: 3.9
Vero E6 [14]
  drug sensitivity score: 3.7
